Measurements from patent US7521466B2, “Dipeptide phenyl ethers” (Bexel Pharmaceuticals, Inc., priority 2003, dated 2009).
Where a name gives a salt, the structure may show the parent alone.

Assays:
db/db mice [1] = assay: Testing hyperglycemia in diabetic db/db mice; type: in vivo; conditions: for improvement of hyperglycemic conditions (blood glucose): db/db mice, 5, 10 and 50 mg/kg body weight orally, 15-21 days; for drop in blood glucose in treated animals compared to control groups: db/db mice, time course experiment following the oral dose (FIGS. 1A, 2A)
Method: The hypoglycemic effect of compounds A and B have been examined in spontaneous animal models of diabetes, leptin receptor knockout (db/db mice). The db/db mice have defective leptin receptor and show hyperglycemia with significant weight gain. The compound at a dose of 5, 10 (FIGS. 1C, 2C) and 50 mg/kg body weight (FIGS. lB, 2B) was given orally in these animals for a period of 15-21 days.

ob/ob mice [2] = assay: Lipid profile (TG, VLDL, cholesterol, HDL) in ob/ob mice; type: in vivo; conditions: 15-day treatment study
Source text: The leptin knock-out ob/ob mice is also considered a good model for insulin resistance and hyperlipidemia. Treatment of these animals with the compounds A and B lowered serum triglycerides (FIG. 4A) and VLDL (FIG. 4B) concentration by >50%.

ob/ob mice [3] = assay: Hyperglycemia and OGTT in diabetic obese ob/ob mice; type: in vivo; conditions: 50 mg/kg orally, 15-21 days
Method: The ob/ob mice is lacking leptin signaling and show hyperglycemia with significant weight gain. The compounds at a dose 50 mg/kg body weight were given orally in these animals for a period of 15-21 days.

ob/ob mice [4] = assay: Body weight gain, food and water intake in obese diabetic ob/ob mice; type: in vivo; conditions: 50 mg/kg orally, 15-21 days
Method: The ob/ob mice are lacking circulating leptin r and show hyperglycemia with significant weight gain. Both the compounds A and B at a dose of 50 mg/kg body weight were given orally in these animals for a period of 15-21 days.

3T3-L1 fibroblasts = assay: Adipogenesis (lipid accumulation, oil red O) in 3T3-L1 fibroblasts; type: cell-based; conditions: 0.1 and 10 uM, 7 days, oil red O staining
Method: Rosiglitazone and Compound A at 0.1 and 10 uM concentrations, were treated for 7 days and at the end lipid droplets were stained with oil red O and visualized under microscope.

[5] = system: 3T3-L1 differentiated adipocytes; assay: Basal glucose uptake in 3T3-L1 adipocytes; type: cell-based; conditions: 72 hr treatment, absence of insulin, control 0.1% DMSO
Method: Basal glucose uptake was carried out in 3T3-L1 differentiated adipocytes. After 72 hr of treatment they were challenged with either rosiglitazone or Compound A, then glucose uptake was carried out in absence of insulin. The control was 0.1% DMSO. Cytochalasin B was added in another set of wells to show the effect is receptor mediated.

TNFα = assay: LPS induced TNFα production in THP-1 monocyte cells; type: cell-based, Human; conditions: THP-1 cells, LPS 1 μg/ml, 24 hours, ELISA
Method: (§1) Human THP-1 monocyte cells were cultured and incubated with compounds A and B at different concentrations. Cells were then challenged with lipopolysaccharides (LPS) at a concentration of (1 μg/ml) for 24 hours. Cell supernatants were then analyzed for the presence of TNFα, IL-1β and IL-6 cytokines by antibody directed enzyme-linked immunoassay (FIGS. 8A, 8B, and 8C).

IL-1β = assay: LPS induced IL-1β production in THP-1 monocyte cells; type: cell-based, Human; conditions: THP-1 cells, LPS 1 μg/ml, 24 hours, ELISA
Method: as §1

IL-6 = assay: LPS induced IL-6 production in THP-1 monocyte cells; type: cell-based, Human; conditions: THP-1 cells, LPS 1 μg/ml, 24 hours, ELISA
Method: as §1

[6] = system: Human THP-1 monocyte cells; assay: Cell viability of THP-1 monocyte cells; type: cell-based; conditions: THP-1 cells, highest concentration of the compound
db/db mice [7] = assay: Body weight gain, food and water intake in db/db mice; type: in vivo; conditions: 50 mg/kg orally, 15-21 days
Method: The db/db mice have defective leptin receptor and show hyperglycemia with significant weight gain. The compound B at a dose of 50 mg/kg body weight was given orally in these animals for a period of 15-21 days.

Compound	improvement of hyperglycemic conditions (blood glucose) (db/db mice [1])	drop in blood glucose in treated animals compared to control groups (db/db mice [1]) [%]	decrease in serum cholesterol concentrations (ob/ob mice [2]) [%]	OGTT (oral glucose tolerance) (ob/ob mice [3])	improvement of hyperglycemic conditions (ob/ob mice [3])	body weight gain compared to controls (ob/ob mice [4])	food intake compared to control groups (ob/ob mice [4])	water intake compared to control groups (ob/ob mice [4])	adipogenesis (lipid accumulation) compared to rosiglitazone (3T3-L1 fibroblasts)	basal glucose uptake compared to control cells [5]	inhibition of TNFα production (TNFα)	inhibition of IL-1β production (IL-1β)	inhibition of IL-6 production (IL-6)	cell viability [6]	body weight gain compared to controls (db/db mice [7])	food intake compared to control groups (db/db mice [7])	water intake compared to control groups (db/db mice [7])
COC(=O)C(Cc1ccc(Oc2ccc(CC3SC(=O)NC3=O)cc2)cc1)NC(=O)C(N)Cc1cnc[nH]1 (centres unmarked) [Compound A, 5-[4-(4-(2-(2-amino-3-imidazol-4-ylpropanamido)-2-methoxycarbonylethyl)phenoxy)benzyl]thiazolidin-2,4-dione dihydrochloride]	significant improvements of hyperglycemic conditions	30	19	significant improvement of OGTT	significant improvements of hyperglycemic conditions	significant reductions in body weight gain	improved significantly	improved significantly	did not show any adipogenesis	significant increase in basal glucose uptake	inhibit the production of three major pro-inflammatory cytokines in a dose dependent manner	inhibit the production of three major pro-inflammatory cytokines in a dose dependent manner	inhibit the production of three major pro-inflammatory cytokines in a dose dependent manner	No significant change in cell viability	–	–	–
COC(=O)C(Cc1ccc(Oc2ccc(C=C3SC(=O)NC3=O)cc2)cc1)NC(=O)C(N)Cc1c[nH]cn1.Cl.Cl (centres unmarked) [Compound B, 5-[4-(4-(2-(2-Amino-3-imidazol-4-ylpropanamido)-2-methoxycarbonylethyl)phenoxy)benzylidene]thiazolidin-2,4-dione dihydrochloride]	significant improvements of hyperglycemic conditions	24	19	significant improvement of OGTT	significant improvements of hyperglycemic conditions	significant reductions in body weight gain	improved significantly	improved significantly	–	–	inhibit the production of three major pro-inflammatory cytokines in a dose dependent manner	inhibit the production of three major pro-inflammatory cytokines in a dose dependent manner	inhibit the production of three major pro-inflammatory cytokines in a dose dependent manner	No significant change in cell viability	significant reductions in body weight gain	improved significantly	improved significantly
